“Also recorded” adds a separate entry of the source.
Columns and labels:
[1] = tested on: splenocytes from BALB/c mice; test: In vitro proliferation assay of splenocytes (3H-thymidine uptake); format: cell-based, mouse; conditions: for mitogenic activity of rTcPA45 in cultures supplemented with substrate: 50 μg/ml rTcPA45, increasing amounts of L- or D-proline, 3 mM to 50 mM; for cell proliferation with substrate alone: 50 mM L- or D-proline alone; for mitogenic activity of rTcPA45 pre-incubated with inhibitor: 50 μg/ml rTcPA45 pre-incubated 10 min at 37° C. with 1 mM inhibitor; for 3H-thymidine uptake: after 48 h, ConA 10 μg/ml, LPS 5 μg/ml, 5×10^4 cells/well
Procedure: Briefly, freshly recovered splenocytes from 8 week old male Balb/c mice seeded at a concentration of 5×10^4 cells/well were incubated for 24, 48 and 72 h in 5% FCS RPMI-1640 medium. A 16 h ^3H-thymidine pulse at 1 μCi/well was performed before harvesting. ^3H-Thymidine uptake was determined in a beta-plate liquid scintillation counter (LKB-Wallac). All points were done in triplicate and the corresponding standard deviation calculated. For comparison, ^3H-thymidine uptake after 48 h in the presence of ConA (10 μg/ml) and LPS (5 μg/ml) was 32000 c.p.m. and 3500 c.p.m., respectively. T-cell depletion was performed by incubating freshly recovered spleen cells for 30 min at 37° C. in the presence of anti-Thy 1.2 monoclonal antibody (Cedarlane) and rabbit complement (Cedarlane). In order to rule out a possible mitogenic effect due to LPS contamination in samples, proliferation assays were also performed on freshly recovered splenocytes from the LPS non-responder mouse strain C3H/Hej. Same levels of proliferation were verified. Balb/c mice were purchased from Charles River, France. C3H/Hej mice were maintained in our animal facilities.
In vitro proliferation is accomplished using freshly recovered splenocytes from BALB/c mice seeded at a density of 5×10^4 cells/well and incubated for 24, 48 and 72 h with increasing concentrations of total parasite supernatants or recombinant TcPa45 protein or other mitogen (0.07-200 μg/ml) with 0.5 μg/ml of the HPLC fractions, or with the conventionally used mitogens concanavalin A (10 μg/ml) and lipopolysaccharide (5 μg/ml) in 5% FCS in RPMI-1640 complete medium. T-cell depletion is accomplished by incubating freshly recovered spleen cells for 30 min. at 37° C. in the presence of monoclonal antibodies against Thy 1.2 and rabbit complement (Cedarlane, Le Perray en Yvelines, France). Analysis of proliferative activity of total splenocytes (5×10^4 cells/well) in the presence of 50 μg/ml enzymatically active rTcPA45 or other mitogen is also compared with the proliferation obtained using the same amounts of rTcPA45 protein or other mitogen lacking racemase activity (by heating for 10 min. at 30° C. or by long term storage at 4° C.). Inhibition of proliferation is obtained by adding to the splenocyte cultures 50 μg/ml rTcPA45 or other mitogen pre-incubated for 10 min. at 37° C. with 1 mM inhibitor, either specific (pyrrole-2-carboxylic acid) or nonspecific (iodoacetamide or iodoacetate). Competitive assays of proliferative activity by 50 μg/ml rTcPA45 or other mitogen are done by adding increasing concentrations of specific substrates i.e., proline racemase substrates (L- or D-proline) for the mitogen rTcPA45 ranging from 3 mM to 50 mM. Controls include the incubation of splenocytes (5×10^4 cells/well) with substrate alone, i.e., 50 mM L- or D-proline in RPMI medium alone for prline racemase. Cultures are collected after a 16-hour pulse or 1 μCi/well ^3H-thymidine uptake was determined in a beta-plate liquid scintillation counter (LKB-Wallac, Orsay, France). All data points are obtained in triplicate and the corresponding standard deviation is calculated.
5×10^5 naive spleen cells/well (96 well plate) were stimulated in vitro with different doses of rTcPA45 (ranging in FIG. 4b from 0.8 to 200 μg/ml final) for 24, 48 and 72 h, at 37° C., 5% CO2. Cultures were pulsed with ^3H-Thymidine (1 μCi/well) for 16-18 h before harvesting. ^3H-thymidine incorporation was obtained after counting using a beta-plate. Results present arithmetic means of c.p.m. (counts/minute) from 6 wells/dose of rTcPA45 or wells containing medium alone (+/−SD of the means).

rTcPA45 proline racemase = target: T1, rTcPA45 proline racemase (Trypanosoma cruzi, UniProt Q4DA80); format: biochemical; conditions: inhibitors 6 mM to 100 mM
T1 construct: 6xHis (C); made in house; host or cells: E. coli (pET28b(+))
Procedure: To investigate the genomic organization and transcription of the Tc45 gene, Southern and Northern blot analyses were done. FIG. 4 depicts the results of characterization of rTcPA45 activities. FIG. 4, part a, is an 8% SDS-PAGE gel of rTcPA45 (Coomasie blue staining). Part b depicts the proliferative activity of total splenocytes (5×10^4 cells/well) in the presence of increasing concentrations of rTcPA45 (μg/ml). […] Reaction conditions were: 0.2 M Na-acetate/25 mM β-mercaptoethanol buffer, pH6, rTcPA45 (3 μg/ml), 30 min incubation at 37° C. in 500 μl. The reaction was stopped by incubating for 10 min at 80° C. […] Reactions were carried out for 30 min at 37° C. and stopped for 5 min at 80° C. All reagents and inhibitors were purchased from Sigma. The shift in optical rotation was measured in a Polarimeter 241 MC (Perkin Elmer).
A suitable test for testing an active molecule inhibiting the polypeptide according to the invention is performed as follows: • The recombinant amino acid purified or native racemase is diluted in sodium acetate buffer or Tris or phophate on Hepes buffer at 3 micrograms per 500 microliters in the presence of 20 millmolar of beta mercepto ethanol and 10 to 80 millimolar of L or D substrate and containing various concentrations of active molecule to be tested. This reaction is incubated for 30 minutes at 37° C. and stopped by heating at 80° C. Variations in optical rotation are measured by a polarimeter.
3 μg of rTcPA45 was diluted in 500 μl of buffer (0.2M NaOAc, 20 mM β-mercaptoethanol, pH6.0) containing different concentrations of the substrate (10-80 mM or L- or D-proline). (See FIG. 4c.) The reaction was incubated for 30-60 minutes at 37° C. in a water bath, followed by heat inactivation of the enzyme for 10 minutes at 80° C. Each sample is diluted to 1.5 ml with water and the mixture submitted to measurement of optical rotation using a polarimeter, at 365 nm. A sample without enzyme is used as a control. […]
The percent of racemization of different concentrations of L-proline, D-proline, L-hydroxy-proline and D-hydroxy-proline substrates was calculated by incubating a 500-μl mixture of 3 μg TcPA45 and 10-80 mM substrate in 0.2 M sodium acetate and 25 mM β-mercaptoethanol, pH 6, for 30 min at 37° C. […] Water (1 ml) was then added, and the optical rotation was measured in polarimeter 241 MC (Perkin Elmer, Montignyle Bretonneux, France) at a wavelength of 365 nm, in a cell with a path length of 10 cm. […] The percent racemization of 80 mM L-proline as a function of pH was determined using 0.2 M sodium acetate, potassium phosphate and Tris-HCl buffers containing 25 mM β-mercaptoethanol; reactions were incubated for 30 min at 37° C. as described above. […]

T1 sequence (Q4DA80 30-423): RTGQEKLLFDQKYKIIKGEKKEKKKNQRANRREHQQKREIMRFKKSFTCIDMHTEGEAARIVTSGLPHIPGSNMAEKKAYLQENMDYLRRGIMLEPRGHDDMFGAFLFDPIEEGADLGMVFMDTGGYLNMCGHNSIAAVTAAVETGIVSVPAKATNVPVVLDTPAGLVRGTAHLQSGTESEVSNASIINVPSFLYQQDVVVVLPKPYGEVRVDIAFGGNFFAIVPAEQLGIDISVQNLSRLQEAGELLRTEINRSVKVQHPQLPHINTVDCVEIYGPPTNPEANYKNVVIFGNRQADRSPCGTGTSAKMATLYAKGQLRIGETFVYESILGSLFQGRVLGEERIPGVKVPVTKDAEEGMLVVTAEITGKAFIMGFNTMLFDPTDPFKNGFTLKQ

## O=C(O)[C@@H]1CCCN1 [L-proline]
[1]
  mitogenic activity of rTcPA45 in cultures supplemented with substrate: affected considerably; also recorded: decrease
  cell proliferation with substrate alone: no cell proliferation

## O=C(O)CI [iodoacetate]
[1]
  mitogenic activity of rTcPA45 pre-incubated with inhibitor: abolished
rTcPA45 proline racemase
  inhibition of rTcPA45 enzymatic activity (racemization of 80 mM L-proline): inhibited to different extents

## O=C(O)c1ccc[nH]1 [pyrrole-2-carboxylic acid]
[1]
  mitogenic activity of rTcPA45 pre-incubated with inhibitor: abolished
rTcPA45 proline racemase
  inhibition of rTcPA45 enzymatic activity (racemization of 80 mM L-proline): inhibited to different extents

## NC(=O)CI [iodoacetamide]
[1]
  mitogenic activity of rTcPA45 pre-incubated with inhibitor: abolished
rTcPA45 proline racemase
  inhibition of rTcPA45 enzymatic activity (racemization of 80 mM L-proline): inhibited to different extents

## lipopolysaccharide [LPS]
[1]
  3H-thymidine uptake: 3500 c.p.m.
[1]; listed as lipopolysaccharide
  3H-thymidine uptake: 3,500 c.p.m.

## O=C(O)[C@H]1CCCN1 [D-proline]
[1]
  mitogenic activity of rTcPA45 in cultures supplemented with substrate: affected considerably; also recorded: decrease
  cell proliferation with substrate alone: no cell proliferation

## O=C(O)/C=C\C(=O)O [maleic acid]
rTcPA45 proline racemase
  inhibition of rTcPA45 enzymatic activity (racemization of 80 mM L-proline): inhibited to different extents

## concanavalin A [ConA]
[1]
  3H-thymidine uptake: 32000 c.p.m.
[1]; listed as concavalin A
  3H-thymidine uptake: 32,000 c.p.m.

— US8168770B2, “Cloning, sequencing and expression of a gene encoding an eukaryotic amino acid racemase, and diagnostic, therapeutic, and vaccination applications of parasite and viral mitogens” (priority 1999, dated 2012)
